Laboratory results reported in US20100041920A1, “NEW SALT FORMS OF AN AMINOINDAN DERIVATIVE” (priority 2008, published 2010).
Where a name gives a salt, the structure may show the parent alone. Read-outs that look alike come from different tables or passages of the source.

Key:
[1] = Accelerated stability studies of rasagiline salts (40° C. and 75% RH; PE and AL bags); format: physicochemical; details: for XRD 1st Month / Purity (HPLC) 1st Month / XRD 2nd Month / Purity (HPLC) 2nd Month: 40° C. and 75% RH; for XRD 1st Month / Purity (HPLC) 1st Month: 1 month; for XRD 2nd Month / Purity (HPLC) 2nd Month: 2 months
Experimental: Rasagiline salts were submitted to accelerated conditions (40° C. and 75% RH) in two types of bags: polyethylene (PE) and aluminium (AL) bags. The samples were characterized by HPLC, XRD, and visual inspection.

[2] = for Colour/Aspect 10 months later / Purity (HPLC) 10 months later / XRD result 10 months later: room temperature, ambient atmosphere; for Purity (HPLC) % initial / XRD result Initial: before storage
[3] = Particle size studies of rasagiline salts (Malvern Mastersizer S); details: particle size by volume, suspended in Isopar G with soybean lecithin
[4] = Flowability studies of rasagiline salts (bulk and tapped density, Hausner ratio); details: for Flowability: flow character by Hausner ratio; for Bulk density: freely settled; for Hausner ratio: tapped bulk density divided by bulk density
[5] = physchem; details: water
Experimental: The mother liquors were analyzed by HPLC.

[6] = 40° C. and 75% RH for one and two months
[7] = room temperature, stirred until equilibration, HPLC
[8] = listed as rasagiline besylate Form I
[9] = listed as rasagiline succinate Form I

Compound	Purity (HPLC) % initial [1] [%]	XRD Initial [1]	Colour/Aspect 10 months later [2]	Purity (HPLC) 10 months later [2] [%]	XRD result 10 months later [2]	Purity (HPLC) % initial [2] [%]	XRD result Initial [2]	stability after ten months of storage (in words) [2]	D(v, 0.1) [3] [μm]	D(v, 0.5) [3] [μm]	D(v, 0.9) [3] [μm]	Tapped density [4] [g/mL]	Bulk density [4] [g/mL]	other results
C#CCN[C@@H]1CCc2ccccc21.C#CCN[C@@H]1CCc2ccccc21.O=C(O)C(O)C(O)C(=O)O [Hemitartrate Form I, rasagiline L-hemitartrate]	99.27	Form I	white powder	98.86	Form I	99.14	Form I	highly stable in terms of visual aspect, chemical purity and of polymorphic form	4.5	18.3	78.8	0.181	0.138	stability under accelerated stability conditions (in words) [1, 6]: highly stable in terms of visual aspect, chemical purity and of polymorphic form; Flowability [4]: Passable (1.26-1.34); Flowability ([4]; listed as rasagiline L-hemitartrate Form I): passable; Flowability ([4]; listed as rasagiline L-hemitartrate salt Form I): excellent
C#CCN[C@@H]1CCc2ccccc21.O=C(O)[C@@H](O)[C@H](O)[C@H](O)[C@@H](O)C(=O)O [Galactarate, rasagiline galactarate]				98.81		98.92		stable in terms of chemical purity and of polymorphic form						
C#CCN[C@@H]1CCc2ccccc21 [Hydrochloride, rasagiline hydrochloride]			white powder	99.74	Form I	99.18	Form I	highly stable in terms of chemical purity and of polymorphic form						
rasagiline besylate [Besylate Form I]	>99.9	Form I							6.5	28.8	50.6	0.435	0.427	Descriptive term (solubility) ([5]; room temperature): Freely soluble; Solubility [5, 7]: >800 mg/mL; Solubility ([5]; room temperature, stirred until equilibration, HPLC, listed as rasagiline besylate Form I): > 800 mg/mL; Descriptive term (solubility) ([5]; room temperature, listed as rasagiline besylate Form I): freely soluble; stability under accelerated stability conditions (in words) ([1]; 40° C. and 75% RH for one month): stable in terms of chemical purity and of polymorphic form; XRD 1st Month ([1]; AL bag): Form I; Purity (HPLC) 1st Month ([1]; aluminium (AL) bag): >99.9%; Purity (HPLC) 1st Month ([1]; polyethylene (PE) bag): >99.9%; Flowability [4]: Excellent (1.00-1.11); Flowability [4, 8]: excellent; Flowability ([4]; listed as rasagiline besylate salt Form I): excellent; Hausner ratio [4]: 1.02; Hausner ratio [4, 8]: 1.00
C#CCN[C@@H]1CCc2ccccc21 [Hydrochloride Form II, rasagiline hydrochloride]	>99.9	Form II							41.7	99.6	185.2	0.673	0.673	Solubility ([5]; thermodynamic from solid): ~400 mg/mL; stability under accelerated stability conditions (in words) [1, 6]: highly stable in terms of visual aspect, chemical purity and of polymorphic form; XRD 1st Month ([1]; AL bag): Form II; XRD 2nd Month ([1]; AL bag): Form II; XRD 1st Month ([1]; PE bag): Form II; XRD 2nd Month ([1]; PE bag): Form II; Purity (HPLC) 1st Month ([1]; aluminium (AL) bag): >99.9%; Purity (HPLC) 2nd Month ([1]; aluminium (AL) bag): >99.9%; Purity (HPLC) 1st Month ([1]; polyethylene (PE) bag): >99.9%; Purity (HPLC) 2nd Month ([1]; polyethylene (PE) bag): >99.9%; Flowability ([4]; hydrochloride): Excellent (1.00-1.11); Flowability ([4]; listed as rasagiline hydrochloride Form II, hydrochloride): excellent; Flowability ([4]; listed as rasagiline hydrochloride salt Form II, hydrochloride): excellent
rasagiline phosphate			white powder	99.60		98.45	amorphous							
rasagiline succinate [Succinate Form I]	>99.9	Form I		99.61	Form I	99.29	Form I	highly stable in terms of visual aspect, chemical purity and of polymorphic form	23.6	85.1	180.4	0.513	0.492	Descriptive term (solubility) ([5]; room temperature): Very soluble; Solubility [5, 7]: >1200 mg/mL; Solubility ([5]; room temperature, stirred until equilibration, HPLC, listed as rasagiline succinate Form I): > 1200 mg/mL; Descriptive term (solubility) ([5]; room temperature, listed as rasagiline succinate Form I): very soluble; stability under accelerated stability conditions (in words) [1, 6]: highly stable in terms of visual aspect, chemical purity and of polymorphic form; XRD 1st Month ([1]; AL bag): Form I; XRD 2nd Month ([1]; AL bag): Form I; XRD 1st Month ([1]; PE bag): Form I; XRD 2nd Month ([1]; PE bag): Form I; Purity (HPLC) 1st Month ([1]; aluminium (AL) bag): >99.9%; Purity (HPLC) 2nd Month ([1]; aluminium (AL) bag): 99.92%; Purity (HPLC) 1st Month ([1]; polyethylene (PE) bag): >99.9%; Purity (HPLC) 2nd Month ([1]; polyethylene (PE) bag): 99.92%; Flowability [4]: Excellent (1.00-1.11); Flowability [4, 9]: excellent; Flowability ([4]; listed as rasagiline succinate salt Form I): excellent; Hausner ratio [4]: 1.04; Hausner ratio [4, 9]: about 1.04
rasagiline maleate			white powder	63.27		66.54	Form I							
C#CCN[C@@H]1CCc2ccccc21.CS(=O)(=O)O [Mesylate, R-(+)-N-propargyl-1-aminoindan mesylate, reference compound]			white powder	99.8	Form I	99.58	Form I					0.407	0.236	Flowability ([4]; listed as rasagiline mesylate, mesylate): very, very poor; Flowability ([4]; mesylate): Very, very poor (>1.60)
C#CCN[C@@H]1CCc2ccccc21.O=C(O)[C@H](O)[C@@H](O)[C@H](O)[C@H](O)CO [Gluconate, rasagiline gluconate]			brown oil	96.36	amorphous	98.61	amorphous							
C#CCN[C@@H]1CCc2ccccc21.O=C(O)[C@H]1OC(O)[C@H](O)[C@@H](O)[C@@H]1O [D-Glucuronate, rasagiline D-glucuronate]			brown oil	50.64	amorphous	86.00	amorphous	highly stable in terms of polymorphic form						
rasagiline tosylate				75.89	Form I	79.87	Form I	highly stable in terms of polymorphic form						
rasagiline fumarate				53.64		59.56	Form I							
